Measured values as given in patent US20230365590A1, “BIPHENYL COMPOUND AS IMMUNOMODULATOR, PREPARATION METHOD THEREFOR AND APPLICATION THEREOF” (SHENZHEN CHIPSCREEN BIOSCIENCES CO., LTD., priority 2020, published 2023).

Legend:
[1] = target: PD-1/PD-L1 binding (recombinant human PD-L1-Fc fusion protein and His-PD-1 protein) (Homo sapiens (Human), UniProt Q9NZQ7); assay: In vitro inhibitory activity against PD-1/PD-L1 binding (HTRF); settings: read-out: IC50 for inhibiting PD-1/PD-L1 binding in vitro
Excerpt: Homogeneous time resolved fluorescence method (HTRF): This method uses the recombinant human PD-L1 protein fused with hFc tag and the recombinant human PD-1 protein fused with His tag, which are interacting ligands and receptors. When the anti-hFc antibody containing chelated Eu tag and the anti-His antibody containing XL665 fluorescein tag are used to bind with the above two corresponding tags respectively and are excited by 320 nm laser, energy can be transferred from Eu element to XL665 fluorescein due to ligand receptor binding, and the XL665 fluorescein is excited to emit light with a wavelength of 665 nm. When an inhibitor for inhibiting interaction of PD-L1 and PD-1 is added, the binding of the ligand and the receptor is destroyed, causing a long distance between Eu and XL665. As a result, the energy cannot be transferred, and the XL665 fluorescein will not be excited.
(§1) Experimental Materials and Devices The recombinant human PD-1 protein with His tag (His-PD-1 protein, Cat #: 10377-H08H-50) and the recombinant human PD-L1-Fc fusion protein (PD-L1-Fc fusion protein, Cat #: 10084-H02H-100) were purchased from Sino Biological Inc., anti-hFc-Eu^3+ antibody and anti-His-XL665 antibody were purchased from Cisbio, and other related reagents such as a diluent buffer (diluent buffer 5 (Cat #: 62DL5DDC) and a detection buffer (PPI-European detection buffer, Cat #: 61DB9RDF) were purchased from Cisbio. Fluorescence detector Tecan (Spark 10M) was purchased from Tecan Company in Switzerland.
The experiment process was carried out according to the flow required in the operating manual of the test reagent. The process was as follows: • (1) Experiment preparation: A test compound was diluted to different concentration gradients with the dilution buffer (the highest final concentration in a 20 μL final reaction system was 10 μM). The His-PD-1 protein was diluted to 800 nM (the final concentration in the 20 final reaction system was 100 nM). The PD-L1-Fc fusion protein was diluted to 16 nM (the final concentration was 2 nM). […] All tests were conducted by use of multiple holes. • (4) The fluorescence detector Tecan (Spark 10M) was used to detect the fluorescence signal of each hole. The excitation wavelength was 320 nm, and the emission wavelengths for detection were 620 nm and 665 nm, respectively. The strength of PD-1/PD-L1 binding refers to a fluorescence signal ratio Em665/Em620. • (5) Calculation formula of binding inhibition rate of test compound: Inhibition rate (%)=[1−(fluorescence signal ratio of detected hole−fluorescence signal ratio of 100% inhibition negative control)]/(fluorescence signal ratio of 0% inhibition positive control−fluorescence signal ratio of 100% inhibition negative control)×100%. The 50% inhibition concentration (IC50) was calculated after the PD-1/PD-L1 binding inhibition rates of the test compound with different concentration gradients were calculated respectively.

[2] = target: CD80/PD-L1 binding (recombinant human His-CD80 protein and PD-L1-Fc fusion protein) (Homo sapiens (Human), UniProt Q9NZQ7); assay: In vitro inhibitory activity against CD80/PD-L1 binding (HTRF); settings: read-out: IC50 for inhibiting CD80/PD-L1 binding in vitro
Excerpt: In addition to PD-1, PD-L1 can also play an immune inhibition role by binding to CD80. Similarly, in vitro CD80/PD-L1 binding or binding inhibition test can also be conducted by homogeneous time-resolved fluorescence (HTRF). When the anti-hFc-Eu^3+ antibody and the anti-His-XL665 antibody are used to bind to the hFC tag fused to PD-L1 and the His tag fused to CD80 respectively, and after excitation with 320 nm laser, energy can be transferred from Eu element to XL665 fluorescein due to the binding of PD-L1 and CD80 to excite the XL665 fluorescein to emit light. When an inhibitor for inhibiting interaction of PD-L1 and CD80 is added, the binding of PD-L1 and CD80 is destroyed, causing a long distance between Eu and XL665. As a result, the energy cannot be transferred, and the XL665 fluorescein will not be excited.
as §1, with “The” for “Experimental Materials and Devices The”, “CD80” for “PD-1”, “(His-CD80” for “(His-PD-1”, “10698-H08H-100)” for “10377-H08H-50)”, “(Diluent” for “(diluent”
The experiment process was carried out according to the flow required in the operating manual of the test reagent (Invitrogen). The process was as follows: • (1) Experiment preparation: A test compound was diluted to different concentration gradients with the dilution buffer (the highest final concentration in a 20 μL final reaction system was 10 μM). The His-CD80 protein was diluted to 800 nM (the final concentration in the 20 final reaction system was 100 nM). The PD-L1-Fc fusion protein was diluted to 16 nM (the final concentration was 2 nM). The anti-His-XL665 antibody and the anti-hFc-Eu^3+antibody were diluted 20 times and 100 times respectively with the detection buffer according to reagent requirements. • (2) First, 5 μL of the test compound, 2.5 μL of the His-CD80 fusion protein and 2.5 μL of the […] fusion protein solution were well mixed and incubated at room temperature for 15 min; then, 5 μL of the anti-His-XL665 antibody and 5 μL of the anti-hFc-Eu^3+antibody were added to the system and further incubated for 3 h before test. • (3) During the test reaction, control groups were set, including a 0% inhibitory positive control without adding the test compound and a 100% inhibitory negative control without adding the CD80 protein. All tests were conducted by use of multiple holes. • (4) The fluorescence detector Tecan (Spark 10M) was used to detect the fluorescence signal of each hole. The excitation wavelength was 320 nm, and the emission wavelengths for detection were 620 nm and 665 nm, respectively. The strength of CD80/PD-L1 binding refers to a fluorescence signal ratio Em665/Em620. • (5) Calculation formula of binding inhibition rate of test compound: Inhibition rate (%)=[1−(fluorescence signal ratio of detected hole−fluorescence signal ratio of 100% inhibition negative control)]/(fluorescence signal ratio of 0% inhibition positive control — fluorescence signal ratio of 100% inhibition negative control)×100%. The 50% inhibition concentration (IC50) was calculated after the CD80/PD-L1 binding inhibition rates of the test compound with different concentration gradients were calculated respectively.

Chain of PD-1/PD-L1 binding (recombinant human PD-L1-Fc fusion protein and His-PD-1 protein) (Q9NZQ7 19-239): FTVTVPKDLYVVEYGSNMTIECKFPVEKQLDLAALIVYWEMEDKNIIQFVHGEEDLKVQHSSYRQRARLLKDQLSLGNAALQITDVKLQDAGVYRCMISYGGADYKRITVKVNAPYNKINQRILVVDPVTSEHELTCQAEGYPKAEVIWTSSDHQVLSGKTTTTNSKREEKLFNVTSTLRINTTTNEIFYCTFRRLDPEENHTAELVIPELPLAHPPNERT
Chain of CD80/PD-L1 binding (recombinant human His-CD80 protein and PD-L1-Fc fusion protein) (Q9NZQ7 19-239): as above

## Cn1c(C(=O)Nc2cccc(-c3cccc(NC(=O)c4nc5c(n4C)CCN(CCC46CCC(C(=O)O)(CC4)C6)C5)c3Cl)c2Cl)nc2c1CCN(CCC13CCC(COC(F)F)(CC1)C3)C2 [Compound I-7, 4-(2-(2-((2,2′-dichloro-3′-(5-(2-(4-((difluoromethoxy)methyl)bicyclo[2.2.1]heptan-1-yl)ethyl)-1-methyl-4,5,6,7-tetrahydro-1H-imidazo[4,5-c]pyridine-2-carboxamido)-[1,1′-biphenyl]-3-yl)carbamoyl)-1-methyl-1,4,6,7-tetrahydro-5H-imidazo[4,5-c]pyridin-5-yl)ethyl)bicyclo[2.2.1]heptane-1-carboxylic acid]
[1]
  IC50: 0.29 nM
[2]
  IC50: 0.33 nM

## COCC12CCC(CN3CCc4c(nc(C(=O)Nc5cccc(-c6cccc(NC(=O)c7nc8c(n7C)CCN(CCC79CCC(C(=O)O)(CC7)C9)C8)c6Cl)c5Cl)n4C)C3)(CC1)C2 [Compound I-8, 4-(2-(2-((2,2′-dichloro-3′-(5-((4-(methoxymethyl)bicyclo[2.2.1]heptan-1-yl)methyl)-1-methyl-4,5,6,7-tetrahydro-1H-imidazo[4,5-c]pyridine-2-carboxamido)-[1, 1′-biphenyl]-3-yl)carbamoyl)-1-methyl-1,4,6,7-tetrahydro-5H-imidazo[4,5-c]pyridin-5-yl)ethyl)bicyclo[2.2.1]heptane-1-carboxylic acid]
[1]
  IC50: 3.7 nM
[2]
  IC50: 3.4 nM

## COCC12CCC(CCN3CCc4c(nc(C(=O)Nc5cccc(-c6cccc(NC(=O)c7nc8c(n7C)CCN(CCC79CCC(C(=O)O)(CC7)C9)C8)c6Cl)c5F)n4C)C3)(CC1)C2 [Compound I-9, 4-(2-(2-((2-chloro-2′-fluoro-3′-(5-(2-(4-(methoxymethyl)bicyclo[2.2.1]heptan-1-yl)ethyl)-1-methyl-4,5,6,7-tetrahydro-1H-imidazo [4,5-c]pyridine-2-carboxamido)-[1,1′-biphenyl]-3-yl)carbamoyl)-1-methyl-1,4,6,7-tetrahydro-5H-imidazo[4,5-c]pyridin-5-yl)ethyl)bicyclo[2.2.1]heptane-1-carboxylic acid]
[1]
  IC50: 0.88 nM
[2]
  IC50: 0.41 nM

## Cn1c(C(=O)Nc2cccc(-c3cccc(NC(=O)c4nc5c(n4C)CCN(CCC46CCC(C(=O)O)(CC4)C6)C5)c3Cl)c2F)nc2c1CCN(CCC13CCC(COC(F)F)(CC1)C3)C2 [Compound I-10, 4-(2-(2-((2-chloro-3′-(5-(2-(4-((difluoromethoxy)methyl)bicyclo[2.2.1]heptan-1-yl)ethyl)-1-methyl-4,5,6,7-tetrahydro-1H-imidazo[4,5-c]pyridine-2-carboxamido)-2′-fluoro-[1,1′-biphenyl]-3-yl)carbamoyl)-1-methyl-1,4,6,7-tetrahydro-5H-imidazo[4,5-c]pyridin-5-yl)ethyl)bicyclo[2.2.1]heptane-1-carboxylic acid]
[1]
  IC50: 1.13 nM
[2]
  IC50: 0.62 nM

## COCC12CCC(CCN3CCc4c(nc(C(=O)Nc5cccc(-c6cccc(NC(=O)c7nc8c(n7C)CCN(CCC79CCC(C(=O)O)(CC7)C9)C8)c6Cl)c5C#N)n4C)C3)(CC1)C2 [Compound I-11, 4-(2-(2-((2-chloro-2′-cyano-3′-(5-(2-(4-(methoxymethyl)bicyclo[2.2.1]heptan-1-yl)ethyl)-1-methyl-4,5,6,7-tetrahydro-1H-imidazo[4,5-c]pyridine-2-carboxamido)-[1,1′-biphenyl]-3-yl)carbamoyl)-1-methyl-1,4,6,7-tetrahydro-5H-imidazo[4,5-c]pyridin-5-yl)ethyl)bicyclo[2.2.1]heptane-1-carboxylic acid]
[1]
  IC50: 1.94 nM
[2]
  IC50: 1.43 nM

## COCC12CCC(CCN3CCc4c(nc(C(=O)Nc5cccc(-c6cccc(NC(=O)c7nc8c(n7C)CCN(CC79CCC(C(=O)O)(CC7)C9)C8)c6Cl)c5C)n4C)C3)(CC1)C2 [Compound I-12, 4-((2-((2-chloro-3′-(5-(2-(4-(methoxymethyl)bicyclo[2.2.1]heptan-1-yl)ethyl)-1-methyl-4,5,6,7-tetrahydro-1H-imidazo[4,5-c]pyridine-2-carboxamido)-2′-methyl-[1,1′-biphenyl]-3-yl)carbamoyl)-1-methyl-1,4,6,7-tetrahydro-5H-imidazo[4,5-c]pyridin-5-yl)methyl)bicyclo[2.2.1]heptane-1-carboxylic acid]
[1]
  IC50: 2.46 nM
[2]
  IC50: 1.64 nM

## Cn1c(C(=O)Nc2cccc(-c3cccc(NC(=O)c4nc5c(n4C)CCN(CC46CCC(C(=O)O)(CC4)C6)C5)c3Cl)c2Cl)nc2c1CCN(CCO)C2 [Example 180]
[1]
  IC50: 4.62 nM
[2]
  IC50: 5.53 nM
